Assay results: ChEMBL document CHEMBL3301361, “Experimental in vitro DMPK and physicochemical data on a set of publicly disclosed compounds”

Test: physchem
Details: octan-1-ol/water, pH 7.4

SMILES	logD
COC(=O)N1CCN(C(=O)Cc2ccc(Cl)c(Cl)c2)[C@H](CN2CCCC2)C1	2.05
O=C1COc2ccc(CNC3CCN(CCN4C(=O)COc5ccc(O)cc54)CC3)nc2N1	0.52
CCCCC1(CC)C(=O)NC(=O)NC1=O [BUTETHAL]	1.5
COc1ccc(C=C2SC(=O)NC2=O)cc1OC	1.17
CC(=O)c1ccc2c(c1)N(CCN1CCC(NCc3ccc4c(n3)NC(=O)CO4)CC1)C(=O)CO2	0.37
Oc1ccnc2ccccc12	0.8
Cc1cc(C(N)=O)ccc1O[C@H]1C[C@H]2CC[C@@H](C1)N2Cc1ccccc1	2.23
COc1ccccc1Cn1c(C)nc2ccccc21	3.47
CC(C)(C)OC(=O)N1CCN(c2ncc(OCc3ccncc3C#N)cn2)CC1	2.81
COc1ccc2c(c1)cc(C(=O)O)n2Cc1ccc(Cl)c(Cl)c1	1.66
CCC(CO)NCCNC(CC)CO (stereo not given)	-1.42
CC(C)CC(N(C)C)C1(c2ccc(Cl)cc2)CCC1 (stereo not given) [SIBUTRAMINE]	3.6
Cc1nc(-c2ccc(CN3CCC(n4c(=O)[nH]c5ccccc54)CC3)cc2)c(-c2ccccc2)[nH]c1=O	3.8
O=C1O[C@]2(CN3CCC2CC3)CN1c1ccc(Br)s1	2

Same assay, conditions: octan-1-ol/water, pH 7.4, LogD7.4

SMILES	logD
CCN1CCN(CC(=O)Nc2ccc(-c3cccc4c(=O)cc(N5CCOCC5)oc34)c3sc4ccccc4c23)CC1	3.05
Nc1ccc2c(c1)C(=O)C(=O)c1ccccc1-2	2.23
CC[C@H](NC(=O)c1c([S+](C)[O-])c(-c2ccccc2)nc2cc(Cl)ccc12)c1ccccc1 (stereo not given in full)	3.07
NC1CCc2cc(OC(=O)c3ccccc3)c(OC(=O)c3ccccc3)cc2C1 (stereo not given)	2.6
CC(C)Cn1c(=O)n(C)c(=O)c2c(C(=O)N3CC[C@@H](O)C3)c(Cc3cccc4ncccc34)sc21	1.98
COc1ccc(C(=O)Nc2cccc(NC(=O)c3ccc(OC)c(OC)c3)n2)cc1OC	3.5
O=c1c2ccccc2nc2ccccn12	2.1
CC(C)(C)C(=O)Nc1ccc2c(c1)C(=O)C(=O)c1ccccc1-2	2.83
CN(C)CCCNC(=O)c1nc(Cl)c(N)nc1N	-1
Cc1nsc(C)c1CCC1CCN(S(=O)(=O)CC2(N(O)C=O)CCOCC2)CC1	1.5
NC(=O)c1ccc(=O)n(Cc2ccc(F)c(F)c2)c1	1.37
CC(=O)N[C@@H](C)c1ccc(Nc2ncc3cc(-c4ccncc4)ccc3n2)cc1	3.17
COc1ccc(-c2cc(=O)[nH]c(N)n2)cc1	1.52
O=c1[nH]c2c(O)ccc([C@@H](O)CNCCCOCCOCCc3cccc4ccccc34)c2s1	2.28
CC(C)C(NC(=O)Cn1c(-c2ccccc2)ccc(NS(C)(=O)=O)c1=O)C(=O)C(F)(F)F (stereo not given)	1.77
CCOc1ccccc1-c1ccc(-c2nc3ccc(F)cc3c(C(=O)NCCOCCN)c2C)cc1	2.46
O=c1[nH]nc2cc(CO)c3ccc(-c4ccc[nH]4)cc3n12	2.19
CN(C)c1ccnc2sc3c(=O)n(-c4ccccc4)cnc3c12	2.34
COc1ccccc1-c1nnc(N)[nH]1	0.91
C[C@@](O)(C(=O)Nc1ccc(S(=O)(=O)NCCCO)cc1Cl)C(F)(F)F	2.1
Cc1cc(NC(=O)c2ccc(Cl)cc2)n(-c2ccccc2)n1	3.25
CCCCC(O)c1[nH]c2cc(C)c(C(=O)O)cc2c1CCc1ccccc1 (stereo not given)	2.59
CC(C)C(NC(=O)Cn1c(-c2ccccc2)ccc(NC(=O)Cc2ccccc2C(=O)O)c1=O)C(=O)C(F)(F)F (stereo not given)	1.14
CCn1cc(C(=O)O)c(=O)c2cc(F)c(N3CCNCC3)cc21 [NORFLOXACIN]	-0.87

SMILES	logD
COc1cc2ncc(C(N)=O)c(Nc3ccc(F)cc3F)c2cc1NCCN1CCOCC1	2.68
CCOc1ccc2nc(NC(=O)CC)sc2c1	3.4
Cc1cc(Oc2ccnc(Nc3cccc(N4CCOCC4)c3)c2)c(-c2ccccn2)nc1C	3.27
NS(=O)(=O)c1nc2ccccc2s1	1.35
O=S(=O)(NCC(c1ccccc1)N1CCCCCC1)c1ccc(Br)cc1 (stereo not given)	3.21
NC(=O)c1cc2ccccc2nc1N	1.07
CC(C)C(NC(=O)Cn1c(-c2ccccc2)ccc(NC(=O)NCc2ccncc2)c1=O)C(=O)C(F)(F)F (stereo not given)	2.16
COc1cc(F)ccc1-c1cncc(CNC2CCCC2)c1	2.29
Nc1nc2cc3c(cc2s1)CCN(Cc1cnc[nH]1)CC3	-0.12
Cc1ccc(CO)cc1N(C)c1ccnc(Nc2cc(C(=O)N3CCOCC3)cc(N3CCOCC3)c2)n1	2.2
COc1cc(N2CCN(C(C)=O)CC2)ccc1Nc1ncc(Cl)c(-c2cnc3c(F)cc(F)cn23)n1	3.2
c1ccc(CNCCNCc2ccccc2)cc1	0.73
CN1CCOc2cc(COc3ccccc3)cnc21	3.3
O=c1ccoc2ccccc12 [CHROMONE]	1.4
O=c1[nH]n(Cc2ccncc2)c(=O)c2c(=O)c3ccc(Cl)cc3[nH]c12	-0.16
O=C1C(=O)c2cccnc2-c2ccccc21	1.88
CN1CCOc2nc(C#Cc3ccccc3)ccc21	3.8
CC(O)(C(=O)Nc1ccc(S(=O)(=O)c2ccncc2)cc1)C(F)(F)F (stereo not given)	2.15
Fc1ccc(-c2ncn(C3CCNCC3)c2-c2ccncc2)cc1 [VK-19911]	0.3
c1cn(-c2ccc(Oc3cc(Oc4ccc5c(c4)OCO5)ncn3)cc2)cn1	3.17
COc1cc(N2CCN(C(C)=O)CC2)ccc1Nc1ncc(Cl)c(-c2cnc3cc(C)ccn23)n1	3.3
Cc1cc2[nH]c(=O)c(O)cc(=O)c2cc1C	1.99
Cc1ncc(-c2nc(Nc3ccc(C(=O)N4CC[C@@H](N(C)C)C4)cc3)ncc2F)n1C(C)C	2.36
CCCCN(CCCC)CCCOC(=O)c1ccc(N)cc1 [BUTACAINE]	1.93

SMILES	logD
Cc1nc(C(=O)N2CCCC3(CCN(Cc4ccccc4)CC3)C2)cs1	0.24
Cc1ccc(C(=O)NC2CCN(c3cc(C(N)=O)cc(Cl)n3)CC2)[nH]1	2.64
NC(=O)c1sc(-c2ccsc2)cc1N	2.23
COc1cc(N2CCN(C(C)=O)CC2)ccc1Nc1nccc(-c2cnc3ccccn23)n1	3
CC(C)c1ncc(NC(=O)OCc2ccccc2)c(=O)n1CC(=O)NC(C(=O)C(F)(F)F)C(C)C (stereo not given)	2.63
CC(C)c1ccccc1Nc1nnc(SCc2cccs2)[nH]1	4.21
CC(c1ccccc1)N1Cc2ccccc2C1=O (stereo not given)	3
COc1ccc(Nc2ccccc2C(=O)O)cc1	1.2
COCCNCc1cncc(-c2ccc(F)cc2OC)n1	1.61
CCC(c1nc2ccsc2c(=O)n1Cc1cscn1)N(CCCN)C(=O)c1ccc(C)cc1 (stereo not given)	0.02
O=c1cc(N2CCOCC2)oc2c(-c3cccc4c5c(sc34)CCCC5)cccc12	4.1
CC(C)C(NC(=O)Cn1c(-c2cccnc2)ncc(NC(=O)OCc2ccccc2)c1=O)C(=O)C(F)(F)F (stereo not given)	2.15
CN(C)c1ccnc2sc(C(=O)NCc3ccccc3)c(N)c12	3.62
CC[C@H](NC(=O)c1c(CS(C)(=O)=O)c(-c2ccccc2)nc2ccccc12)c1ccccc1	3.25
O=c1oc2cc(O)ccc2cc1-c1ccc(O)cc1	2.9
Cc1ccc(-c2cn(C)c(C)n2)cc1NC(=O)c1ccc(OCc2ccccn2)cc1	2.71
NNCCc1ccccc1 [PHENELZINE]	-0.01
C=CCn1c(=O)c2c(-c3cc(C#N)cn3C)n(Cc3ccnc4ccc(Cl)cc34)nc2n(CC2CC2)c1=O	4.27
CCN1CCC[C@H](CN2CCN(C(=O)Nc3ccc(Cl)c(Cl)c3)CC2)C1	1.86
CNC(=O)c1ccc(-c2cc(C(=O)N[C@H]3CCCNC3)c(NC(N)=O)s2)cc1	0.7
CC[C@H](NC(=O)c1c([S+](C)[O-])c(-c2ccc(F)cc2)nc2ccccc12)c1ccccc1 (stereo not given in full)	3.72
O=C1O[C@@H](Cn2nncc2F)CN1c1ccc(C2=CCS(=O)(=O)CC2)c(F)c1	3.54
OC(CCN1CCCCC1)(c1ccccc1)C1CCCCC1 (stereo not given) [TRIHEXYPHENIDYL]	2.68
COc1cc(OC2CCN(C)CC2)c2c(Nc3c(Cl)ccc4c3OCO4)ncnc2c1	2.98

SMILES	logD
N[C@H](CNC(=O)c1cc2c(-c3ccccc3Cc3ccccc3)cccc2[nH]1)C(=O)O	3.25
N=C(N)NC(=O)c1nc(Cl)c(NCc2ccncc2)nc1N	-0.51
CCC(NC(=O)c1ccc(C)cc1)c1nc2ccsc2c(=O)n1Cc1ccccc1 (stereo not given)	4.14
Clc1cccc2cn[nH]c12	2.33
COc1cc(N2CCN(C)CC2)c2[nH]c(C(=O)Nc3ccc(N4CCOCC4)cc3)cc(=O)c2c1	2.7
Cc1ccc(NC(=O)c2cccc(C(F)(F)F)c2)cc1NC(=O)c1cccnc1	3.11
Oc1ccc(-c2nc3ccc(O)cc3o2)cc1	3.3
COC[C@H](C)Oc1cc(Oc2ccc(S(C)(=O)=O)cc2)cc(C(=O)Nc2ccc(C(=O)O)cn2)c1	-0.41
Cc1cccc(NC(=O)NCC(c2cccnc2)N2CCOCC2)c1 (stereo not given)	2
O=S(=O)(Nc1cccnc1)c1cccs1	0.54
Nc1nc(N)c(-c2ccc(NC(=O)C3CC3)cc2)c(COCc2ccccc2)n1	2.46
COc1cc2c(Nc3c(Cl)ccc4c3OCO4)ncnc2cc1OCCCN1CCCC1	1.62
Cn1cc(-c2ccc(O)cc2)c(=O)c2c(O)cc(O)cc21	2.2
COc1cccc(NC(=O)c2cccc(Cc3c(C)nn(CCO)c3-c3ccccc3)c2)c1	4.29
OCC[C@]1(c2cc3ccccc3o2)CCCNC1	0.12
N=C(N)Nc1ccc(C(=O)Oc2ccc(Cl)cc2)cc1	0.7
COC(=O)[C@@H]1[C@H]2C[C@H]3c4[nH]c5ccccc5c4CCN3C[C@@H]2CC[C@@H]1O [YOHIMBINE]	1.65
CCCN[C@H]1CCc2nc(N)sc2C1 [PRAMIPEXOLE]	3.15
COc1ccc(S(=O)(=O)Nc2ccc(-c3ccccc3)n(CC(=O)NC(C(=O)C(F)(F)F)C(C)C)c2=O)cc1 (stereo not given)	2.5
CCN(C(=O)Nc1ccccc1)c1ccccc1	3.1
CN(c1ccccc1)c1ccnc(Nc2cc(N3CCOCC3)cc(N3CCOCC3)c2)n1	3.47
COc1cccc(Nc2nc(NCC3CCCO3)c3ccccc3n2)c1 (stereo not given)	3.9
CC(C)C(NC(=O)Cn1c(-c2ccccc2)ccc(NC(=O)Cc2ccc(C(=O)O)cc2)c1=O)C(=O)C(F)(F)F (stereo not given)	0.35
CC(C)C(NC(=O)Cn1c(-c2ccccc2)ccc(NC(=O)OCc2ccccn2)c1=O)C(=O)C(F)(F)F (stereo not given)	1.91
